pEC50, pKi: −log10 of the molar value.
Legend:
EP2 [1] = biological target: T1, EP2 (Homo sapiens, UniProt P43116); assay: EP2 cAMP functional assay; format: cell-based
Source text: (§1) U.S. Pat. No. 7,427,685 incorporated by reference herein, describes the methods used to obtain the in vitro data in Table 2 below.

EP2 [2] = biological target: T1, EP2; assay: EP2 binding (Ki)
Source text: as §1

EP2 [3] = biological target: T1, EP2; assay: EP2 Ca2+ signal functional assay; format: cell-based
Source text: as §1

EP4 [4] = biological target: T2, EP4 (Homo sapiens, UniProt P35408); assay: EP4 Ca2+ signal functional assay; format: cell-based
T2 sequence (P35408 whole entry): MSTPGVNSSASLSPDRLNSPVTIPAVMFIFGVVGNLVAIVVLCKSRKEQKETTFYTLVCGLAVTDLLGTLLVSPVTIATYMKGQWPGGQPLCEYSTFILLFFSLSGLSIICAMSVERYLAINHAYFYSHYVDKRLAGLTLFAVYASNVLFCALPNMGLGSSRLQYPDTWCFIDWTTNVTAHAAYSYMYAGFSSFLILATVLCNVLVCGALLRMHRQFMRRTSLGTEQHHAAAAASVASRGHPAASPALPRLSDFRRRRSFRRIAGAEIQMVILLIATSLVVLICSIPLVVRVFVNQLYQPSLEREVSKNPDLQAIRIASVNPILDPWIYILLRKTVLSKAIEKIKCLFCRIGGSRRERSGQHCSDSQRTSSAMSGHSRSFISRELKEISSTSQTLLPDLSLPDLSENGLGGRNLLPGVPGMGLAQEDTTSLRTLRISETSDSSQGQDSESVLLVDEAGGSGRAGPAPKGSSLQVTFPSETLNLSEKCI
Source text: as §1

EP4 [5] = biological target: T2, EP4; assay: EP4 binding (Ki)
Source text: as §1

DP = biological target: T3, DP (Homo sapiens, UniProt Q13258); assay: Other receptors Ca2+ functional assay, DP; format: cell-based
T3 sequence (Q13258 1-359): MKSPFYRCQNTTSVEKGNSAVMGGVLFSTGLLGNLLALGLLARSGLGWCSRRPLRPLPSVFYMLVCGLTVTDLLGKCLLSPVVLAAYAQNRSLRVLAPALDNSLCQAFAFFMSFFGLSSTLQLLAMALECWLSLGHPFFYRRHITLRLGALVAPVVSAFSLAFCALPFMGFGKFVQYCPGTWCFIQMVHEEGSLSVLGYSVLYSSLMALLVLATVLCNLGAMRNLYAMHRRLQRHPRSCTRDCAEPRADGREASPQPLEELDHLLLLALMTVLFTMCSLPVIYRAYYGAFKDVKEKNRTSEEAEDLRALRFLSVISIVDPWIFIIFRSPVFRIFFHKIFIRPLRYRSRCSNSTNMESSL
Source text: as §1

EP3 = biological target: T4, EP3 (Homo sapiens, UniProt P43115); assay: Other receptors Ca2+ functional assay, EP3; format: cell-based
T4 sequence (P43115 1-390): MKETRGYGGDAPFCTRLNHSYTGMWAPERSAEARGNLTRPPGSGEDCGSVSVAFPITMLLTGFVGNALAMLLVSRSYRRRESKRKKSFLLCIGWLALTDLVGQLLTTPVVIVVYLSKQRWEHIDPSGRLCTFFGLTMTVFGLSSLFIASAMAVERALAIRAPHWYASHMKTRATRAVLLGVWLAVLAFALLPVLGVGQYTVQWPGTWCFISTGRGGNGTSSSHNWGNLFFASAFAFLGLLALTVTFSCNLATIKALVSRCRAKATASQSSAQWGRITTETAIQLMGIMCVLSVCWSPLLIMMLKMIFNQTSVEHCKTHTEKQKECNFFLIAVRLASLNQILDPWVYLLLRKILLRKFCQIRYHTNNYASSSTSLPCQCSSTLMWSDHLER
Source text: as §1

T1 sequence (P43116 whole entry): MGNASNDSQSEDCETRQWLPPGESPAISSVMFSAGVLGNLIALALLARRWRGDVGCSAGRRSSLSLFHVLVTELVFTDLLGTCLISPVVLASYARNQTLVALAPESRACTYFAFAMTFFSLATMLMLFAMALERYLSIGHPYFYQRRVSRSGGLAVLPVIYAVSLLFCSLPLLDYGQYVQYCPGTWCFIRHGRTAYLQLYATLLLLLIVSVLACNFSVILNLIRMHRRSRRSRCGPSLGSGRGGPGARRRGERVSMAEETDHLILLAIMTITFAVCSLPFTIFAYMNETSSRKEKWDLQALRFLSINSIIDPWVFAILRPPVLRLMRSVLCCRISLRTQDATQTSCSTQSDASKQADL

Compound	pEC50 (EP2 [1])	pKi (EP2 [2])	pEC50 (EP2 [3])	pEC50 (EP4 [4])	pKi (EP4 [5])	EC50 (DP) [nM]	EC50 (EP3) [nM]
O=C(O)c1ccc(CCC[C@@H]2[C@@H](/C=C/C3CCCC3)[C@H](O)C[C@H]2Cl)s1 [Entry 2]	9.05	8.00	8.52	5.87	5.56	191	
O=C(O)c1ccc(CCC[C@@H]2[C@@H](CCC3CCCCC3)[C@H](O)C[C@H]2Cl)s1 [Entry 3]	9.70	9.10	7.92	5.18	5.67	548	9050
O=C(O)c1ccc(CCC[C@@H]2[C@@H](/C=C/C3CCCCC3)[C@H](O)C[C@H]2Cl)s1 [Entry 4]	9.30	8.40	8.15	5.48	5.57	2160	5220
CCCCCC1(CC[C@@H]2[C@@H](CCCc3ccc(C(=O)O)s3)[C@H](Cl)C[C@H]2O)CCCCC1 [Entry 5]	6.82	5.98	5.62	5.03	5.30		
O=C(O)c1ccc(CCC[C@@H]2[C@@H](CCC3CCCC3)[C@H](O)C[C@H]2Cl)s1 [compound 1]	9.22	8.05	8.40	5.51	5.58	259	

— patent US8299068B2, “Therapeutically active cyclopentanes” (Allergan, Inc., priority 2010, dated 2012)
